Measured values as given in patent US3961054A, “Combatting dandruff with mercapto quinoline N-oxides” (Ciba-Geigy Corporation, priority 1974, dated 1976).
Converted amounts (≈) assume the structure as drawn. “And” between values parts separate entries of the source, which are not always exact repeats. Equal entries are not always repeated. Structures can show the parent of a compound that is named as a salt. Where two headings read alike, the source gives them in different places.

Legend:
[1] = system: P. Ovale; assay: Microbiological activity against P. Ovale, agar serial dilution (Table 1); assay type: cell-based, P. Ovale (ATCC 14521); conditions: for MIC: 96 h, read-out: Minimum Inhibitory Concentration (MIC) against P. Ovale
Protocol: The microbiological activities of the zinc and sodium complexes of 2-mercapto-quinoline-N-oxide (MQNO) against P. Ovale were compared with the sodium and zinc salts of pyridinethione-N-oxide (PTO) and other conventional soapbacteriostats. P. Ovale is a microorganism associated with dandruff conditions.
Equal amounts of the respective compounds were dissolved in methyl cellosolve, dimethylformamide, or water, serially diluted in ten fold sequence and incorporated into plates of molten Agar. The plates were allowed to solidify, were then inoculated with P. Ovale (ATCC 14521), incubated at 27°C. for 4 days and inspected for growth.

[2] = system: Staph. aureus; assay: Antimicrobial spectrum, MIC, Staph. aureus (Table 3); assay type: cell-based, Staph. aureus ATCC 6538; conditions: Staphylococcus aureus
Protocol: (§1) Equivalent amounts of ZnMQNO, NaMQNO, ZnPTO and NaPTO were solubilized in methyl cellosolve (PTO) and dimethyl formamide (MQNO). Ten fold serial dilutions were prepared employing additional solvent and equal aliquots pipetted into molten (50°C) agar support media. Nutrient Agar was employed for all bacteria and Mycological Agar was employed for the fungi and dermatophyte. After preparing pour plates for the bacteria and streaks for the fungi and dermatophyte, the plates were incubated (37°C and 27°C, respectively) and observed for growth.

[3] = system: Proteus vulgaris; assay: Antimicrobial spectrum, MIC, Proteus vulgaris (Table 3); assay type: cell-based; conditions: ATCC9920, ATCC 9920, Nutrient Agar, 37°C, ten fold dilutions, read-out: Minimum Inhibitory Concentration, Proteus vulgaris
Protocol: as §1

[4] = system: Aspergillus oryzae; assay: Antimicrobial spectrum, MIC, Aspergillus oryzae (Table 3); assay type: cell-based, Aspergillus oryzae ATCC 10196; conditions: for MIC: Aspergillus oryzae
Protocol: as §1

[5] = system: Gram-positive and negative bacteria, fungi and dermatophytes; assay: Antimicrobial spectrum, overall (Example 8); assay type: cell-based; conditions: in words, from Table 3
Protocol: as §1

[6] = system: P. Ovale; assay: Substantivity/activity in calf skin, zone of inhibition against P. Ovale (Table 2); assay type: cell-based; set-up: unit not given here; conditions: 2% in shampoo, replicate plates 1-4, 27°C, 4 days
Text: The substantivity/activity of the zinc complex of 2-mercapto-quinoline-N-oxide of the invention in calf-skin were compared with the zinc salt of pyridinethione-N-oxide in the following manner. ZnMQNO and ZnPTO were incorporated by blending on a 3-roll mill in amounts of 1% and 2% by weight into a non-bacteriostatic paste shampoo of the following composition.
Calf skin specially prepared by the method of Vinson IN VITRO TESTS FOR MEASURING ANTIBACTERIAL ACTIVITY OF TOILET SOAP AND DETERGENT BARS by L. J. Vinson, E. L. Ambye, A. G. Bennet, Journal of Pharmaceutical Sciences, Vol. 50, P. 10, October, 1961.
0.3 g of shampoo was applied in each instance to 12.5 sq. in. of calf skin (equivalent to […] of shampoo per 90.2 sq. in. of human scalp) and a rich lather worked up for 2 minutes. The calf skin was then rinsed in running tap water for 30 seconds with vigorous message to remove all lather. The moist skin was then given a second lather identical to the first and again rinsed as before. After air drying, the calf skins were cut into 2.1 cm discs and placed on agar inoculated with P. Ovale. After 4 days incubation at 27°C, the zones of inhibition size were recorded.

[7] = system: T. interdigitale; assay: Antimicrobial spectrum, MIC, T. interdigitale (Table 3); assay type: cell-based, Trichophyton interdigitale ATCC 9533; conditions: Trichophyton interdigitale, ATCC9533, read-out: Minimum Inhibitory Concentration, T. interdigitale
Protocol: as §1

[8] = Relative solubility (statement in words); assay type: physicochemical; conditions: explains smaller zone size in agar
[9] = system: dandruff; conditions: in words; background; cited from earlier work
[10] = Pityrosporum ovale, agar, 27°C, 4 days

`Oc1ccc(Cl)cc1Sc1cc(Cl)ccc1O` [2,2'-dihydroxy-5.5'-dichlorodiphenyl monosulfide] showed an MIC [1] of over 1000 µg/mL.
For `Sc1ccccn1` [2-mercaptopyridine], the MIC [1, 10] was over 1000 µg/mL.
For `Sc1ccc2ccccc2n1` [2-mercaptoquinoline], the MIC [1, 10] was over 1000 µg/mL.
`O=c1[nH]c2cc(Cl)c(Br)cc2o1` [5-chloro-6-bromobenzoxazo-linone] showed an MIC [1, 10] of 1000 µg/mL (≈ 4.02 mM).
For `Oc1cccc2cccnc12` [8-Hydroxyquinoline], the MIC [1] was 100 µg/mL (≈ 0.689 mM).
`Oc1c(I)cc(I)c2cccnc12` [Diiodohydroxyquinoline] showed an MIC [1, 10] of 1000 µg/mL (≈ 2.52 mM).
Work on `Oc1c(Cl)cc(Cl)c(Cl)c1Cc1c(O)c(Cl)cc(Cl)c1Cl` [Hexachlorophene] yielded an MIC [1] of over 1000 µg/mL.
Work on `[O-][n+]1c(S)ccc2ccccc21` [Na MQNO, Sodium Complex Of 2-Mercapto-Quinoline-N-Oxide] yielded an MIC [1, 10] of 50 to 60 µg/mL, an MIC ([2]; ATCC6538, ATCC 6538, Nutrient Agar, 37°C, ten fold dilutions, read-out: Minimum Inhibitory Concentration, Staph. aureus) of 0.1 µg/mL and an MIC [3] of 0.1 µg/mL. It also gave an MIC ([4]; ATCC10196, ATCC 10196, Mycological Agar, 27°C, ten fold dilutions, read-out: Minimum Inhibitory Concentration, Aspergillus oryzae) of 10100 µg/mL.
With `[O-][n+]1ccccc1S` [Na PTO, sodium salt of pyridinethione-N-oxide] the MIC [1] was 7 to 10 µg/mL, the MIC ([2]; ATCC6538, read-out: Minimum Inhibitory Concentration, Staph. aureus) was 0.1 µg/mL and the MIC ([4]; ATCC10196, read-out: Minimum Inhibitory Concentration, Aspergillus oryzae) was 10100 µg/mL. For the same compound, the antimicrobial spectrum [5] was “broad-spectrum antimicrobial agents showing good activity at low concentrations against Gram-positive and negative bacteria, fungi and dermatophytes”.
In the case of `Cc1cc(O)cc(C)c1Cl` [P-chloro-m-xylenol], the MIC [1, 10] is reported as 1000 µg/mL (≈ 6.39 mM).
For `O=C(Nc1ccc(Cl)c(Cl)c1)c1cc(Cl)cc(Cl)c1O` [Tetrachloro salicyanilide], the “Minimum Inhibitory Concentration (MIC) against P. Ovale” value ([1]; agar, 27°C, 4 days) was 1000 PPM.
With `Oc1c(Cl)cc(Cl)cc1Sc1cc(Cl)cc(Cl)c1O` [Thio bis(dichlorophenol)] the “Minimum Inhibitory Concentration (MIC) against P. Ovale” value ([1]; agar, 27°C, 4 days) was over 1000 PPM.
In the case of `O=C(Nc1ccc(Br)cc1)c1cc(Br)cc(Br)c1O` [Tribromo salicyanilide], the “Minimum Inhibitory Concentration (MIC) against P. Ovale” value ([1]; agar, 27°C, 4 days) is reported as 1000 PPM.
For `O=C(Nc1ccc(Cl)cc1)c1cc(Cl)cc(Cl)c1O` [Trichloro salicyanilide], the “Minimum Inhibitory Concentration (MIC) against P. Ovale” value ([1]; agar, 27°C, 4 days) was over 1000 PPM.
In the case of `O=C(Nc1ccc(Cl)cc1)Nc1ccc(Cl)c(Cl)c1` [Trichlorocarbanilide], the “Minimum Inhibitory Concentration (MIC) against P. Ovale” value ([1]; agar, 27°C, 4 days) is reported as over 1000 PPM.
`C=CCCCCCCCCC(=O)O` [Undecylenic acid] showed an MIC [1] of 1000 µg/mL (≈ 5.43 mM).
In the case of `[O-][n+]1c(S)ccc2ccccc21.[Zn]` [Zn MQNO, Zinc 2-mercaptoquinoline-N-oxide], the “Zone of Inhibition Against P. Ovale - Calf Skin, 1 Application” value ([6]; listed as MONO) is reported as 0.5 and 1.5 and 1.0, the “Zone of Inhibition Against P. Ovale - Calf Skin, 2 Applications” value ([6]; listed as MONO) is reported as 2.0 and 4.5 and 2.5 and the MIC [7] is reported as 10100 µg/mL. For the same compound, the “solubility relative to ZnPTO” value [8] was “less soluble than ZnPTO”.
For `[O-][n+]1ccccc1[S-].[O-][n+]1ccccc1[S-].[Zn+2]` [Zn PTO, zinc salt of pyridinethione-N-oxide], the “Minimum Inhibitory Concentration (MIC) against P. Ovale” value ([1]; agar, 27°C, 4 days) was 7-10 PPM, the “Zone of Inhibition Against P. Ovale - Calf Skin, 1 Application” value ([6]; listed as Zinc PTO) was 4.5 and 4.0 and 5.0 and the “Zone of Inhibition Against P. Ovale - Calf Skin, 2 Applications” value ([6]; listed as Zinc PTO) was 10.0 and 7.0 and 5.0. For the same compound, the “Minimum Inhibitory Concentration, Aspergillus oryzae” value ([4]; ATCC 10196, Mycological Agar, 27°C, ten fold dilutions) was 10 100 PPM and the antimicrobial spectrum [5] was “broad-spectrum antimicrobial agents showing good activity at low concentrations against Gram-positive and negative bacteria, fungi and dermatophytes”.
For `[S]` [elemental sulfur], the “anti-dandruff activity (prior art agents)” value [9] is given as “extremely effective in the control of dandruff”.
For “N-alkyl-dimethyl-benzyl ammonium chloride”, the “Minimum Inhibitory Concentration (MIC) against P. Ovale” value ([1]; agar, 27°C, 4 days) was over 1000 PPM.
For “N-alkyl-dimethyl-ethyl-benzyl ammonium cyclohexyl sulfamate”, the “Minimum Inhibitory Concentration (MIC) against P. Ovale” value ([1]; agar, 27°C, 4 days) was over 1000 PPM.
With “Sodium salt of sulphosuccinate of undecylenic-monoalkylolamide” the “Minimum Inhibitory Concentration (MIC) against P. Ovale” value ([1]; agar, 27°C, 4 days) was over 1000 PPM.
In the case of Undecen-1-ol, the “Minimum Inhibitory Concentration (MIC) against P. Ovale” value ([1]; agar, 27°C, 4 days) is reported as over 1000 PPM.
With “m-alkyl-dimethyl-ethyl-benzyl ammonium chloride” the “Minimum Inhibitory Concentration (MIC) against P. Ovale” value ([1]; agar, 27°C, 4 days) was over 1000 PPM.
